The record followed here is ChEMBL document CHEMBL3244027, “Syntheses, analgetic activity, and physical dependence capacity of 5-phenyl-6,7-benzomorphan derivatives” (J Med Chem, 1979).

SMILES strings stand for the structures. Calls of active or inactive are those of the source. The rule behind the calls is not given here.

In test [1] the test system is Mus musculus. Put plainly: Analgetic activity in po dosed CF1S mouse assessed as writhing by phenylquinone writhing test. It counts as functional.
Test [2] concerns Mus musculus. The test is described as follows: Analgetic activity in sc dosed CF1S mouse assessed as writhing by phenylquinone writhing test. Type of test: functional. A general note: In writhing tests, fewer writhes than in controls are read as antinociception.
Test [3] has as its system Mus musculus. The test is described as follows: Analgetic activity against CF-1 mouse assessed as increase in reaction time at 320 mg/kg, po by heat stimulus induced tail flick response assay. Type of test: functional, organism-based. On the set-up: dose 320 mg/kg.
Where [4] appears, read: Mus musculus, CF1S, po, read-out: ED50.
Where [5] appears, read: Mus musculus, CF1S, sc, read-out: ED50.

For the molecule `CC1C2Cc3ccc(O)cc3C1(c1ccccc1)CCN2CC1CCC1.CS(=O)(=O)O` (racemic), the ED50 in test [1] (setting [4]) is over 100 mg/kg. Consider `CC1C2Cc3ccc(O)cc3C1(c1ccccc1)CCN2CCc1cccs1.Cl.O` (stereo not drawn), for which the ED50 in test [2] (setting [5]) and in test [1] (setting [4]) was over 100 mg/kg each time. For the molecule `Oc1ccc2c(c1)C1(c3ccccc3)CCNC(C2)C1` (stereo not drawn), the outcome in test [3] was inactive.

Regarding `CN1CCC2(c3ccc(O)cc3)CC1Cc1ccc(O)cc12` (racemic), the outcome in test [3] was inactive. As to `CC1C2Cc3ccc(O)cc3C1(c1ccccc1)CCN2CCO` (racemic), the ED50 is 44 mg/kg in test [2] (setting [5]) and over 100 mg/kg in test [1] (setting [4]). Consider `CCCCCN1CCC2(c3ccccc3)c3cc(O)ccc3CC1C2C` (stereo not drawn), for which the ED50 in test [1] (setting [4]) is over 100 mg/kg.

Turning to `CC1C2Cc3ccc(O)cc3C1(c1ccccc1)CCN2CC1CCC1.Cl` (stereo in doubt; 219), the results for the ED50 in test [2] and in test [1] (setting [4]) were 28 mg/kg and 300 mg/kg, respectively. `CC1C2Cc3ccc(O)cc3C1(c1ccccc1)CCN2CCC(c1ccccc1)c1ccccc1` (stereo in doubt; 166): the outcome in test [3] was inactive. Take `CCCN1CCC2(c3ccccc3)c3cc(O)ccc3CC1C2C.Cl` (stereo in doubt; 163): the ED50 in test [2] was 14 mg/kg; in test [1] (setting [4]), over 100 mg/kg. In the case of `COc1ccc2c(c1)C1(c3ccccc3)CCN(CC3CCC3)C(C2)C1.Cl.O` (racemic), the ED50 in test [1] (setting [4]) was over 100 mg/kg.

In the case of `Cl.Oc1ccc2c(c1)C1(c3ccccc3)CCN(CC3CCC3)C(C2)C1` (stereo in doubt; 145), the ED50 came out at 2.8 mg/kg in test [2] and 34 mg/kg in test [1]. In the case of `CC1C2Cc3ccc(O)cc3C1(c1ccccc1)CCN2CCC(C#N)(c1ccccc1)c1ccccc1` (stereo in doubt; 167), the ED50 in test [2] (setting [5]) is 110 mg/kg; in test [1] (setting [4]) it was over 100 mg/kg. In the case of `CC(=O)CCN1CCC2(c3ccccc3)c3cc(O)ccc3CC1[C@H]2C.CS(=O)(=O)O` (stereo partly drawn), the ED50 in test [1] (setting [4]) is over 100 mg/kg. As for `CCCCC(=O)Oc1ccc2c(c1)C1(c3ccccc3)CCN(CC3CCC3)C(C2)C1.Cl` (racemic), the ED50 in test [1] (setting [4]) is over 100 mg/kg. On the same count and under the same terms, next, `Cl.O=C(CCCN1CCC2(c3ccccc3)CC1Cc1ccccc12)c1ccc(F)cc1` (racemic): over 150 mg/kg. On the same count and under the same terms, for `CC1C2Cc3ccc(O)cc3C1(c1ccccc1)CCN2C(=O)C12CC3CC(CC(C3)C1)C2.O` (stereo not drawn) the value was over 100 mg/kg. For `Br.CC1C2Cc3ccc(O)cc3C1(c1ccccc1)CCN2CC1COc2ccccc2O1` (stereo not drawn), the results for the ED50 in test [2] (setting [5]) and in test [1] (setting [4]) were 84 mg/kg and over 100 mg/kg, respectively. Take `CC(C)=CCN1CCC2(c3ccccc3)c3cc(O)ccc3CC1C2C.Cl` (stereo in doubt; 207): the ED50 in test [2] (setting [5]) turned out to be 39 mg/kg. For `C[C@@H]1C2Cc3ccc(OS(C)(=O)=O)cc3C1(c1ccccc1)CCN2C` (stereo partly drawn), the ED50 in test [2] (setting [5]) came out at 5.3 mg/kg. `C=CCN1CCC2(c3ccccc3)CC1Cc1ccc(O)cc12` (stereo in doubt; 143): the ED50 in test [2] is over 80 mg/kg. As for `C=CCN1CCC2(c3ccccc3)CC1Cc1ccc(O)cc12` (stereo in doubt; 146), the ED50 in test [2] is over 30 mg/kg.

In the case of `C/C(Cl)=C/CN1CCC2(c3ccccc3)CC1Cc1ccc(O)cc12` (racemic), the ED50 in test [2] (setting [5]) is over 100 mg/kg. Turning to `Br.CC1C2Cc3ccc(O)cc3C1(c1ccccc1)CCN2CC(=O)c1ccccc1` (stereo not drawn), the ED50 in test [2] (setting [5]) is over 100 mg/kg.

With `CC1C2Cc3ccc(OC(=O)c4ccccc4)cc3C1(c1ccccc1)CCN2C` (stereo not drawn), the ED50 in test [2] (setting [5]) was 0.5 mg/kg. Consider `CC(C)=CCN1CCC2(c3ccccc3)c3cc(OS(=O)(=O)c4ccc(C)cc4)ccc3CC1C2C` (stereo not drawn), for which the ED50 in test [2] (setting [5]) is over 100 mg/kg. Turning to `CC(C)O.Cl.Oc1ccc2c(c1)C1(c3ccccc3)CCN(CC3CC3)C(C2)C1` (racemic), the ED50 was found to be 33 mg/kg in test [2] (setting [5]) and 107 mg/kg in test [1] (setting [4]). For `Cl.Oc1ccc2c(c1)C1(c3ccccc3)CCN(CCc3ccccc3)C(C2)C1` (stereo not drawn), the ED50 in test [2] (setting [5]) stood at 7.4 mg/kg. As for `Br.CC1C2Cc3ccc(O)cc3C1(c1ccccc1)CCN2CCC(c1ccccc1)c1ccccc1.O` (stereo in doubt; 166), the ED50 in test [2] (setting [5]) was over 100 mg/kg. For the molecule `Cl.Oc1ccc2c(c1)C1(c3ccccc3)CCN(CC3CCC3)C(C2)C1` (racemic), the ED50 in test [2] turned out to be 6.2 mg/kg; in test [1], 124 mg/kg.

As usually defined, the ED50 is the dose at which the effect has come halfway, by size or by number of responders.
